Test results taken from ChEMBL document CHEMBL5678803, “Selective blockade of TRPA1 channel attenuates pathological pain without altering noxious cold sensation or body temperature regulation” (Pain, 2011).

Key:
Homo sapiens [1] = species on record: Homo sapiens; experiment: Inhibition of sodium channel (unknown origin) at 10 micromol/L by radioligand binding assay relative to control; settings: dose 10.0 µmol/L
[2] = biological target: Transient receptor potential cation channel subfamily A member 1 (Rattus norvegicus, UniProt Q6RI86); experiment: Antagonist activity at rat TRPA1 expressed in HEK293F cells assessed as reduction in AITC-induced increase in intracellular Ca2+ level by FLIPR-based Ca2+ assay; assay type: cell-based
Chain of Transient receptor potential cation channel subfamily A member 1 (Rattus norvegicus, UniProt Q6RI86) (Q6RI86 whole entry): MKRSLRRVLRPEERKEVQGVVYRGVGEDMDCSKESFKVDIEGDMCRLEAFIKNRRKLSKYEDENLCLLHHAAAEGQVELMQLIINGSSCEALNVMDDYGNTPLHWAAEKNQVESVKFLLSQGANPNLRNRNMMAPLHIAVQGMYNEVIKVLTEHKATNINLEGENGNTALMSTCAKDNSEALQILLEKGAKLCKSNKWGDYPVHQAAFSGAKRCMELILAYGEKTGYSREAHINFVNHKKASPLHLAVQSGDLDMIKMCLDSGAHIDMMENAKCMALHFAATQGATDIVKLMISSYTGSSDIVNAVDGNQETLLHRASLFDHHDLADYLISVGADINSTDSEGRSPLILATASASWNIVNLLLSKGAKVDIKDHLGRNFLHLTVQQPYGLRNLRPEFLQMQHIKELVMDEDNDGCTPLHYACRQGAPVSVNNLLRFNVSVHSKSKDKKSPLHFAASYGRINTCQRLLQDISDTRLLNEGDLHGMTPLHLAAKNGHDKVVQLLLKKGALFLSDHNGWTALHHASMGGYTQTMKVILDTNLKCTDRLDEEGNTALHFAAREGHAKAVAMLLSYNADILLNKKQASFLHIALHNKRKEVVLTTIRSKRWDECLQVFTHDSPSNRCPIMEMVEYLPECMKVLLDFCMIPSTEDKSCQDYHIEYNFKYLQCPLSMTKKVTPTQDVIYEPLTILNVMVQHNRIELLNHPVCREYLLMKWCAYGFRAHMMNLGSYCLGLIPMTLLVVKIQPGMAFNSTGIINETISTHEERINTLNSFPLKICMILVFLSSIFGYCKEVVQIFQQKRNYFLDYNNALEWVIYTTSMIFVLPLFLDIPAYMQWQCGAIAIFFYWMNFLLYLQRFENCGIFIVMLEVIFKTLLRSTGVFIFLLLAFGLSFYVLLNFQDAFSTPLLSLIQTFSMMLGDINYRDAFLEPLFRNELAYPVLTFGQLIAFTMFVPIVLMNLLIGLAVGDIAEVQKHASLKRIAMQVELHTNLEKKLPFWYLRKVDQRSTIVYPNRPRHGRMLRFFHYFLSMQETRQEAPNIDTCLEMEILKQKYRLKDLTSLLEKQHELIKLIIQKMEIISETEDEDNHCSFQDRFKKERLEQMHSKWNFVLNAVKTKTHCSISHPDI

Homo sapiens [3] = species on record: Homo sapiens; experiment: Inhibition of sigma receptor (unknown origin) at 10 micromol/L by radioligand binding assay relative to control; settings: dose 10.0 µmol/L
[4] = biological target: Cannabinoid receptor 2 (Homo sapiens) (UniProt P34972); experiment: Inhibition of CB2 receptor (unknown origin) at 10 micromol/L by radioligand binding assay relative to control; settings: dose 10.0 µmol/L
Chain of Cannabinoid receptor 2 (Homo sapiens) (P34972 whole entry): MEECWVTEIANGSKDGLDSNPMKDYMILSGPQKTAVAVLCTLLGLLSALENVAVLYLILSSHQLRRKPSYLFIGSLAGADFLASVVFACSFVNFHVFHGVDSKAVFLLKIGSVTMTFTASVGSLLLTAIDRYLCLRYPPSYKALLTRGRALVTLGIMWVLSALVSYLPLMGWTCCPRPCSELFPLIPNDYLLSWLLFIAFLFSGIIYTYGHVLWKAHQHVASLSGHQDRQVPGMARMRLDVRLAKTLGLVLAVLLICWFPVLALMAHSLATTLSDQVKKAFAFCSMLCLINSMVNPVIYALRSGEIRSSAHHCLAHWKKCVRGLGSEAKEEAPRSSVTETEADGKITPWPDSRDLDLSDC

[5] = biological target: T1, Transient receptor potential cation channel subfamily A member 1 (Homo sapiens, UniProt O75762); experiment: Antagonist activity at recombinant human TRPA1 expressed in HEK293F cells assessed as reduction in AITC-induced increase in intracellular Ca2+ level by FLIPR-based Ca2+ assay; assay type: cell-based
T1 sequence (O75762 whole entry): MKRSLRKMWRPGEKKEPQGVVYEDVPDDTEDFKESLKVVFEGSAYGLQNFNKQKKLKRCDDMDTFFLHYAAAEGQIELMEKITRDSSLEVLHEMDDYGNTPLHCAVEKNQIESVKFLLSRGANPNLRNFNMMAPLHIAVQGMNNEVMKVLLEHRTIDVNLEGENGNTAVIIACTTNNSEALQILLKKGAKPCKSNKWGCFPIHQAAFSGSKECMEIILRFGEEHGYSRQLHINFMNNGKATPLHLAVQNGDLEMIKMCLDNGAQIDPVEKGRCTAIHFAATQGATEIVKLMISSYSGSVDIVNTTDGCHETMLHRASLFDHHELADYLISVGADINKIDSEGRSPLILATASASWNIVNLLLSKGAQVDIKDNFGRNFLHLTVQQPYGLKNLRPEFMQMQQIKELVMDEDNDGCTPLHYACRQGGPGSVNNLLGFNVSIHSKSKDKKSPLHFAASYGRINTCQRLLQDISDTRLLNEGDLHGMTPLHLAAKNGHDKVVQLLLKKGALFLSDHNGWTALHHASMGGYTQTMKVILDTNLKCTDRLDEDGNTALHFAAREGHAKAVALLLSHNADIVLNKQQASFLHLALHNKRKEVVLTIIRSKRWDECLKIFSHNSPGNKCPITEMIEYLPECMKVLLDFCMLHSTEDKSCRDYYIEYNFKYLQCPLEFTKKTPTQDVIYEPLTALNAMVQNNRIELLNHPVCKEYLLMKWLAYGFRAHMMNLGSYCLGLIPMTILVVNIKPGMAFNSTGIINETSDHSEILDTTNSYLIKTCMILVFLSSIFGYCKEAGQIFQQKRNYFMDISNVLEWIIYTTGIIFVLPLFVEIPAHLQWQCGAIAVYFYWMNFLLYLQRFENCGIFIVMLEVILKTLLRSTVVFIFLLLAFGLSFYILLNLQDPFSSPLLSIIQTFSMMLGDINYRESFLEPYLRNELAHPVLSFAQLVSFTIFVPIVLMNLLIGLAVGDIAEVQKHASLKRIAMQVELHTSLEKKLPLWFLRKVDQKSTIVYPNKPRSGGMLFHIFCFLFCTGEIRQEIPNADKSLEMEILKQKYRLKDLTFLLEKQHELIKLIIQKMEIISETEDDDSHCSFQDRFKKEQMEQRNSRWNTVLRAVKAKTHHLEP

[6] = Toxicity in Sprague-Dawley rat assessed as increase in body temperature at 1.16 mg/kg, po measured after 480 mins by radiotelemetric analysis; assay type: organism-based; settings: in vivo, 8 h
[7] = Toxicity in Sprague-Dawley rat assessed as effect on tail withdrawal latency to hot water immersion at 55 degreeC at 11.6 mg/kg, po by tail immersion test; assay type: organism-based; settings: in vivo
[8] = Toxicity in Sprague-Dawley rat assessed as increase in body temperature at 3.88 mg/kg, po measured after 480 mins by radiotelemetric analysis; assay type: organism-based; settings: in vivo, 8 h
[9] = biological target: T1, Transient receptor potential cation channel subfamily A member 1; experiment: Antagonist activity at TRPA1 (unknown origin)
Rattus norvegicus [10] = experiment: Antiallodynic activity in CFA-induced mechanical allodynia Sprague-Dawley rat model assessed as attenuation of mechanical allodynia at 100 mg/kg, po administered with compound for 1 hrs and measured 48 hrs after CFA injection relative to control; assay type: functional; settings: time 49 hrs
Rattus norvegicus [11] = experiment: Antiallodynic activity in CCI-induced neuropathic pain Sprague-Dawley rat model assessed as attenuation of mechanical allodynia at 100 mg/kg, po administered with compound for 1 hrs and measured 10 to 14 days after surgery relative to control; assay type: functional; settings: time 241-337 hrs
Rattus norvegicus [12] = experiment: Antiallodynic activity in spinal nerve ligation-induced neuropathic pain Sprague-Dawley rat model assessed as attenuation of mechanical allodynia at 100 mg/kg, po administered with compound for 1 hrs and measured 10 to 14 days after surgery relative to control; assay type: functional; settings: time 241-337 hrs

SMILES: CC(C)c1ccc(NC(=O)Cn2cnc3c2c(=O)n(C)c(=O)n3C)cc1
- inhibition (Homo sapiens [1]): 40%
- IC50 [2]: 6.9 µM
- inhibition (Homo sapiens [3]): 37%
- inhibition [4]: 33%
- IC50 [5]: 6.9 µM

SMILES: Cc1nc(Nc2cccc3c2C[C@H](O)CC3)oc1-c1ccc(C(F)(F)F)cc1
- deltaT [6]: 0.6 °C
- Activity [7]: Toxic
- deltaT [8]: 0.9 °C

SMILES: CC(=N/O)/C(C)=C/c1ccc(Cl)cc1
- IC50 [2]: 8.8 µM
- IC50 [5]: 6.9 µM
- IC50 [9]: 3.1 µM

SMILES: NCC1(CC(=O)O)CCCCC1 [GABAPENTIN]
- Activity (Rattus norvegicus [10]): 50%
- Activity (Rattus norvegicus [11]): 50%
- Activity (Rattus norvegicus [12]): 50%
